Measurements: publication PMC10507085, “Pharmacological inhibition of TBK1/IKKε blunts immunopathology in a murine model of SARS-CoV-2 infection” (Nature Communications, 2023)

Assays:
Assay in all cases: biochemical
Set-up in all cases: KINOMEscan competition binding, DNA-tagged kinase against immobilised ligand, qPCR read-out
Conditions in all cases: read-out: Percent Control
[1] = target: AKT2 (Homo sapiens, UniProt P31751)
[2] = target: CDK5 (Homo sapiens, UniProt Q00535)
[3] = target: DDR2 (Homo sapiens, UniProt Q16832)
[4] = target: EIF2AK2 (Homo sapiens, UniProt P19525)
[5] = target: ERBB3 (Homo sapiens, UniProt P21860)
[6] = target: FLT3 (Homo sapiens, UniProt P36888)
[7] = target: IKBKE (Homo sapiens, UniProt Q14164)
[8] = target: MAP2K3 (Homo sapiens, UniProt P46734)
[9] = target: MAP3K13 (Homo sapiens, UniProt O43283)
MAP3K13, sequence (O43283 whole entry): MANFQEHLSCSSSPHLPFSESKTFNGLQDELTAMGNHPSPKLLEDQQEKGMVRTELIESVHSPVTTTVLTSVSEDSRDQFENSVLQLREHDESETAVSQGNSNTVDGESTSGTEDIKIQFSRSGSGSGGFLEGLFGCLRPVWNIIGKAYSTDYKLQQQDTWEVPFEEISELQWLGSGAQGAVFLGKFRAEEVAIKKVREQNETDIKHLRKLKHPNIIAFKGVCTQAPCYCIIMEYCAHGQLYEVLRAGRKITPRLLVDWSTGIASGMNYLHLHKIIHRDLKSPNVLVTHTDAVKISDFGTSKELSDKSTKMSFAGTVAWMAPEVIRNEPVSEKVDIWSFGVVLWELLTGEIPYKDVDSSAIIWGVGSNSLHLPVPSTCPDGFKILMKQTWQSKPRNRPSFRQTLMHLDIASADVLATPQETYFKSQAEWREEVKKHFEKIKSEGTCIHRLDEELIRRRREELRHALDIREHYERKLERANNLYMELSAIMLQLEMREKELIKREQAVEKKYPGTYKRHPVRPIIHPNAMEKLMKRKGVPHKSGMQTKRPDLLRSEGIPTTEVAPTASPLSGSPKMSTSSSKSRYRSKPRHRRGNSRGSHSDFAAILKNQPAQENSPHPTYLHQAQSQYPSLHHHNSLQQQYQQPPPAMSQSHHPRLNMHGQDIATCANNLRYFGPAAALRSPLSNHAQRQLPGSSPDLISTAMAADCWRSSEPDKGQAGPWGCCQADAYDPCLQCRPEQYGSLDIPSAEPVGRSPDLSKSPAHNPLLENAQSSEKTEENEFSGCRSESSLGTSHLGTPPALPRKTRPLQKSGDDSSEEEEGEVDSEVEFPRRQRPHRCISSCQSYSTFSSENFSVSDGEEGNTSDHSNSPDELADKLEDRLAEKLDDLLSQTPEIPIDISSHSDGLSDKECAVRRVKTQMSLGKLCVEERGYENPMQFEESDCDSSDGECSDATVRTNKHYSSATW

[10] = target: T1, MGC42105 (Homo sapiens, UniProt Q8IY84)
T1 construct: gene NIM1K
T1 sequence (Q8IY84 whole entry): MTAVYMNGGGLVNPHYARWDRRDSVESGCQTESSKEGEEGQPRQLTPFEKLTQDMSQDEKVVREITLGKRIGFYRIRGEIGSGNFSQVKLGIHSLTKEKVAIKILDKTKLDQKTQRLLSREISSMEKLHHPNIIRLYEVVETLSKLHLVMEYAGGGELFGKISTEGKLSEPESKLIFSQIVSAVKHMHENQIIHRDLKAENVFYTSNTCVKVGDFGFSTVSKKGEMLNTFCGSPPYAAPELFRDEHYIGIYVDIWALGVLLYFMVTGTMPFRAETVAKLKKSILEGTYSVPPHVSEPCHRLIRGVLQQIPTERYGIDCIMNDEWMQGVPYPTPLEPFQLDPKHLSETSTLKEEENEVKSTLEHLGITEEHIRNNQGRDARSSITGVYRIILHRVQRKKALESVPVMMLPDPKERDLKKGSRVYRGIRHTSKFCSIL

[11] = target: NEK2 (Homo sapiens, UniProt P51955)
[12] = target: NUAK1 (Homo sapiens, UniProt O60285)
[13] = target: PAK2 (Homo sapiens, UniProt Q13177)
PAK2, sequence (Q13177 whole entry): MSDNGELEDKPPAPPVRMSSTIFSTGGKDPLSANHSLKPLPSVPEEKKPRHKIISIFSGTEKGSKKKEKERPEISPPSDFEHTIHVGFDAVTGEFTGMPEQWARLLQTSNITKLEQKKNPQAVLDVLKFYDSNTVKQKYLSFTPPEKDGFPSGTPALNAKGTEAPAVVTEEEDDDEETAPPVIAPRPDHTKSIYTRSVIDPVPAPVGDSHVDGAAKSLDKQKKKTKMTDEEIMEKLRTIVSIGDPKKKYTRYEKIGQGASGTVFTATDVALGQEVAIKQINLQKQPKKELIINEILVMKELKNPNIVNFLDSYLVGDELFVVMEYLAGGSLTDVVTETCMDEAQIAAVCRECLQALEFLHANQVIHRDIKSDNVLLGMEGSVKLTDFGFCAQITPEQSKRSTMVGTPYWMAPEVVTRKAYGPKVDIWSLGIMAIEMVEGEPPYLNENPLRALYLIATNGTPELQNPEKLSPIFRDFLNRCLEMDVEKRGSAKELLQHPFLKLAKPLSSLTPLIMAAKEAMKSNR

[14] = target: PAK6 (Homo sapiens, UniProt Q9NQU5)
[15] = target: PRKACB (Homo sapiens, UniProt P22694)
[16] = target: RAF1 (Homo sapiens, UniProt P04049)
RAF1, sequence (P04049 whole entry): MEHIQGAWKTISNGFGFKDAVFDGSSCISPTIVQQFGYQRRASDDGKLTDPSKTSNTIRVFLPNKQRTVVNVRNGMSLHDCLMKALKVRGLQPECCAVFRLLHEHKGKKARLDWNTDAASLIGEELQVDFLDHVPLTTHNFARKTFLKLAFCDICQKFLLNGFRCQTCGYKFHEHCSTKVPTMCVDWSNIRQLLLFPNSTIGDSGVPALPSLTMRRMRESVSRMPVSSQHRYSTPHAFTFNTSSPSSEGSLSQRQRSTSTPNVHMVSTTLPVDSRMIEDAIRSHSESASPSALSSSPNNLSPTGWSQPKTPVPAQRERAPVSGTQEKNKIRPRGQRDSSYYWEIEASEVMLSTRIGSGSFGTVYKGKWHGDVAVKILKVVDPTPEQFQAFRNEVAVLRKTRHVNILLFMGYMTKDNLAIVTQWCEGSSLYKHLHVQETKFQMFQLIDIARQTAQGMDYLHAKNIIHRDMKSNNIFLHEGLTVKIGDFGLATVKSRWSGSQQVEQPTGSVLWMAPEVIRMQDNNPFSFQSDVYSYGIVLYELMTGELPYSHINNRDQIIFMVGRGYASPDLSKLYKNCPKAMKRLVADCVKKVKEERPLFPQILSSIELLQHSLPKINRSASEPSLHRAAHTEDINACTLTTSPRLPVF

[17] = target: TAOK3 (Homo sapiens, UniProt Q9H2K8)
TAOK3, sequence (Q9H2K8 whole entry): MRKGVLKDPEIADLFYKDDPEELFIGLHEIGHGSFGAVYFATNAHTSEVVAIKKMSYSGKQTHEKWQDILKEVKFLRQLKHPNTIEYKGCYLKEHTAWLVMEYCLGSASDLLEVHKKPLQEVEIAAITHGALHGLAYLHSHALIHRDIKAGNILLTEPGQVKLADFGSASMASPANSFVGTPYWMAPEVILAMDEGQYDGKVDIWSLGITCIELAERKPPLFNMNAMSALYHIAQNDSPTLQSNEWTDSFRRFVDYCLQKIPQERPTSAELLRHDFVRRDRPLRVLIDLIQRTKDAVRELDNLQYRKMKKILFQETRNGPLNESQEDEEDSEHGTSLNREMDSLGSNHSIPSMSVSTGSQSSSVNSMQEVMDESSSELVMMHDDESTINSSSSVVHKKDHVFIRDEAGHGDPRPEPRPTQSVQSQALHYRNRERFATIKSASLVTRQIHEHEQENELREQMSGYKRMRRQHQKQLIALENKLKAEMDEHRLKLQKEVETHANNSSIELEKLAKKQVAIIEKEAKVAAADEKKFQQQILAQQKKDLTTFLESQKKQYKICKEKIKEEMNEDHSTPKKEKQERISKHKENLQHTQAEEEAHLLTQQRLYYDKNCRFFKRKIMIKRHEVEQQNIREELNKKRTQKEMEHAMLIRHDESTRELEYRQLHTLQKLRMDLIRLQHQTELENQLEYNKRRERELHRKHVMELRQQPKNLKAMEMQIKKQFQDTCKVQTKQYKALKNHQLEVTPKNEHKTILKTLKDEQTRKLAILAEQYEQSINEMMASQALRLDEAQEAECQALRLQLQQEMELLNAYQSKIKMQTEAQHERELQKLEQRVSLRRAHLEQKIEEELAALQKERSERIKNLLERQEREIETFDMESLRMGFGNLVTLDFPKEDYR

[18] = target: TIE1 (Homo sapiens, UniProt P35590)
[19] = target: TNK2 (Homo sapiens, UniProt Q07912)
TNK2, sequence (Q07912 whole entry): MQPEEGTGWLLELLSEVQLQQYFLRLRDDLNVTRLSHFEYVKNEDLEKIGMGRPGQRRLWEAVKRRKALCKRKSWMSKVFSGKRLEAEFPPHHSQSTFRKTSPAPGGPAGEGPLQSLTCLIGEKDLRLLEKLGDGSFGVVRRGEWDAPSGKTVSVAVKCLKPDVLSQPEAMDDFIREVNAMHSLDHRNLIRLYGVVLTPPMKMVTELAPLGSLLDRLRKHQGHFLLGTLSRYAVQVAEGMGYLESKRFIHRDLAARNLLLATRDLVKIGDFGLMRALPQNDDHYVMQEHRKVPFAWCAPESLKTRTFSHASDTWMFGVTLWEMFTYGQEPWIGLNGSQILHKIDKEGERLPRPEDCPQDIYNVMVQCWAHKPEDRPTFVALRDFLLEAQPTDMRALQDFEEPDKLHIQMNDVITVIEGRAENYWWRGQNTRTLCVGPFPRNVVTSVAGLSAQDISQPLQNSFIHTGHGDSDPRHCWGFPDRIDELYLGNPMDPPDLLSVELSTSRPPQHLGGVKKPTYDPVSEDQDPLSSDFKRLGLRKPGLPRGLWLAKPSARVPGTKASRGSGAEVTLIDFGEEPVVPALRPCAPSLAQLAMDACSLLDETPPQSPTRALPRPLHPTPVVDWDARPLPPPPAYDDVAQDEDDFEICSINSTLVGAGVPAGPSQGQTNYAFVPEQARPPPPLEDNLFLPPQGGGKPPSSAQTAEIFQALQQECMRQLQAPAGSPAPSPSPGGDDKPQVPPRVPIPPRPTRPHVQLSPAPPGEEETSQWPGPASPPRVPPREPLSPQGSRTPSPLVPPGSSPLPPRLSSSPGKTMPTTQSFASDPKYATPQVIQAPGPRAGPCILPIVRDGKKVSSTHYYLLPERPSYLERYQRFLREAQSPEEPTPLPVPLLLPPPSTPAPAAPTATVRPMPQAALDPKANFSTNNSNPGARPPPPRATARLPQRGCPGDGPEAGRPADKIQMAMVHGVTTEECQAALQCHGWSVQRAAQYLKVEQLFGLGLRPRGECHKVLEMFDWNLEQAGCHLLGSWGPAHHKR

[20] = target: WNK1 (Homo sapiens, UniProt Q9H4A3)

AKT2, sequence (P31751 whole entry): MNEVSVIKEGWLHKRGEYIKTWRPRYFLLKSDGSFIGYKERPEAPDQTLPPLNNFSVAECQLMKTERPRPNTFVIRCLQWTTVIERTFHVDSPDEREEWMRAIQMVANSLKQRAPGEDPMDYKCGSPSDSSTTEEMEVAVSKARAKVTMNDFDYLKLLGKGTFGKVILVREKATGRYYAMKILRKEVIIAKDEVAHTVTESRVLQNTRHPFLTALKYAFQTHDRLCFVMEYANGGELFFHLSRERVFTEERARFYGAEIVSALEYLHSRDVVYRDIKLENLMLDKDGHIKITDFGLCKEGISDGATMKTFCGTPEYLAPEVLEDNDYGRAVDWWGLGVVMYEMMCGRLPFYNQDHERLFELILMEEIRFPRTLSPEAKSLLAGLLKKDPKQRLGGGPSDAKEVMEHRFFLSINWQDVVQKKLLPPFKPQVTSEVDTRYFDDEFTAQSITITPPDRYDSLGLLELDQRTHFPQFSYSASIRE

Oc1ccc(C2=Cc3ccc(O)cc3OC2)cc1 [compound 1, idronoxil]
remaining binding at 10 µM [1]: 90%
remaining binding at 10 µM [2]: 100%
remaining binding at 10 µM [3]: 100%
remaining binding at 10 µM [4]: 85%
remaining binding at 10 µM [5]: 73%
remaining binding at 10 µM [6]: 80%
remaining binding at 10 µM [7]: 65%
remaining binding at 10 µM [8]: 56%
remaining binding at 10 µM [9]: 84%
remaining binding at 10 µM [10]: 93%
remaining binding at 10 µM [11]: 100%
remaining binding at 10 µM [12]: 97%
remaining binding at 10 µM [13]: 49%
remaining binding at 10 µM [14]: 100%
remaining binding at 10 µM [15]: 88%
remaining binding at 10 µM [16]: 69%
remaining binding at 10 µM [17]: 53%
remaining binding at 10 µM [18]: 84%
remaining binding at 10 µM [19]: 91%
remaining binding at 10 µM [20]: 83%
